{"source": "patent US4816560A", "about": "“Partially retro-inverted tuftsin analogues, method for the preparation thereof and pharmaceutical compositions containing them” (priority 1986, dated 1989)", "system": "peritoneal M.phi. from normal C3H/HeN mice", "assay": "macrophage (M.phi.) phagocytic stimulation assay (ingestion of killed yeast cells, Zymosan)", "assay_type": "cell-based", "description": "The compounds of formula I, including the pharmaceutically acceptable esters, amides and salts, are active as immunostimulating agents. […] This assay, carried out in comparison with tuftsin, has been performed according to a modification of the method described by Bar-Shavit et al. in J.Cell.Physiol., 100, p.55 (1979). More particularly, peritoneal M.phi. from normal C3H/HeN mice are harvested by washing of the peritoneal cavity and purified by adherence as described in J.Immunol., 132, p.1987 (1984). Monolayers of 1×10^6 adherent peritoneal cells (95-98% of the monocyte-M.phi. series as judged by morphology and latex phagocytosis) are cultured for 20 h at 37° C. in RPMI-1640 medium supplemented with 50 μg/ml gentamycin, 25 mM HEPES buffer, 2 mM L-glutamine and 10% heat-inactivated fetal bovine serum (FBS). At the end of the incubation, M.phi. are washed and then exposed for 15 minutes at 37° C. to 1.3 ml/plate of culture medium either alone (blank) or containing tuftsin or a compound of the invention at different concentrations. A 1.5×10^8 cells/ml suspension of killed yeast cells (Zymosan)(0.2 ml) is then added to the plates. M.phi. are incubated for 60 minutes at 37° C., then washed, fixed (2% glutaraldehyde in PBS, 30 minutes, 4° C.) and stained. The percentage of phagocyting M.phi. and the number of ingested Zymosan cells is measured with an optical microscope equipped with a 100x immersion objective. In a representative experiment aimed at comparing the activity of tuftsin with that of the corresponding retro-inverso analogue of example 1, it has been observed that all M.phi. were capable of phagocyting zymosan in the above described conditions.\nAs the poor therapeutical applicability of tuftsin is mainly due to its low stability and to the consequent rapid loss of biological activity, the phagocytosis assay has been repeated comparing the activity of tuftsin and its retro-inverso analogue of example 1, stored for 14 days in solution at 4° C. […] At the concentration of 10^-6 M in fact the compound of Example 1 gave a number of ingested zymosan cells per 100 phagocyting macrophages of 1.8×10^3 (with an immunopotentiating effect corresponding therefore to 136% of the control).", "key": {"[1]": {"conditions": "peptide stored for 14 days in solution at 4° C., concentration 10^-6 M"}}}
{"substance": "{(2RS)-2-[N-(1-amino-2-hydroxy-propyl)carbamyl]-6-amino}-hexanoyl-L-prolyl- L-arginine [Example 1]", "values": [{"measurement": "number of ingested yeast cells (in words)", "setting": "fresh peptide, linearly dependent on peptide concentration", "result": "significantly increased"}, {"measurement": "ingested zymosan cells, % of the control", "setting": "peptide concentration 3×10^-7 M", "result": "170 % of the control"}, {"measurement": "ingested zymosan cells per 100 macrophages", "setting": "peptide concentration 3×10^-7 M, 15 min exposure, then 60 min with Zymosan at 37° C.", "result": "2.2×10^3 ingested zymosan cells per 100 macrophages"}, {"measurement": "ingested zymosan cells per 100 phagocyting macrophages", "setting": "peptide concentration 10^-6 M", "result": "2.44×10^3 ingested zymosan cells per 100 phagocyting macrophages"}, {"measurement": "ingested zymosan cells, % of the control", "setting": "peptide concentration 10^-6 M", "result": "188 % of the control"}, {"measurement": "phagocytosis stimulation (in words)", "setting": "peptide stored for 14 days in solution at 4° C.", "result": "still significant even if less than above"}, {"measurement": "immunopotentiating effect, % of the control", "setting": "[1]", "result": "136 % of the control"}, {"measurement": "ingested zymosan cells per 100 phagocyting macrophages", "setting": "[1]", "result": "1.8×10^3 ingested zymosan cells per 100 phagocyting macrophages"}]}
